From patent US10392368B2, “Pyrazolo and triazolo bicyclic compounds as JAK kinase inhibitors” (THERAVANCE BIOPHARMA R&D IP, LLC, priority 2017, dated 2019)
Where two headings read alike, the source gives them in different places.

Tests used:
Tyk2 = biological target: T1, Tyk2 (Homo sapiens, UniProt P29597); assay: Biochemical Tyk2 kinase assay (LanthaScreen); conditions: for Ki: read-out: Tyk 2 (pKi) (converted)
T1 construct: GST; purchased Life Technologies
Procedure, shortened: (§1)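 Recombinant GST-tagged JAK enzymes with GFP-STAT1 peptide substrate in 50 mM HEPES pH 7.5, 10 mM MgCl2, 1 mM EGTA, 0.01% Brij-35; compounds pre-incubated 1 h, then ATP added, 1 h reaction at ambient temperature. TR-FRET (Tb-anti-pSTAT1 pTyr701, 520/495 nm) after EDTA stop; IC50 by 4-parameter fit, converted to pKi via Cheng-Prusoff.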

JAK2 = biological target: T2, JAK2 (Homo sapiens, UniProt O60674); assay: Biochemical JAK2 kinase assay (LanthaScreen); conditions: for Ki: read-out: JAK 2 (pKi) (converted)
T2 construct: GST; purchased Life Technologies
T2 sequence (O60674 whole entry): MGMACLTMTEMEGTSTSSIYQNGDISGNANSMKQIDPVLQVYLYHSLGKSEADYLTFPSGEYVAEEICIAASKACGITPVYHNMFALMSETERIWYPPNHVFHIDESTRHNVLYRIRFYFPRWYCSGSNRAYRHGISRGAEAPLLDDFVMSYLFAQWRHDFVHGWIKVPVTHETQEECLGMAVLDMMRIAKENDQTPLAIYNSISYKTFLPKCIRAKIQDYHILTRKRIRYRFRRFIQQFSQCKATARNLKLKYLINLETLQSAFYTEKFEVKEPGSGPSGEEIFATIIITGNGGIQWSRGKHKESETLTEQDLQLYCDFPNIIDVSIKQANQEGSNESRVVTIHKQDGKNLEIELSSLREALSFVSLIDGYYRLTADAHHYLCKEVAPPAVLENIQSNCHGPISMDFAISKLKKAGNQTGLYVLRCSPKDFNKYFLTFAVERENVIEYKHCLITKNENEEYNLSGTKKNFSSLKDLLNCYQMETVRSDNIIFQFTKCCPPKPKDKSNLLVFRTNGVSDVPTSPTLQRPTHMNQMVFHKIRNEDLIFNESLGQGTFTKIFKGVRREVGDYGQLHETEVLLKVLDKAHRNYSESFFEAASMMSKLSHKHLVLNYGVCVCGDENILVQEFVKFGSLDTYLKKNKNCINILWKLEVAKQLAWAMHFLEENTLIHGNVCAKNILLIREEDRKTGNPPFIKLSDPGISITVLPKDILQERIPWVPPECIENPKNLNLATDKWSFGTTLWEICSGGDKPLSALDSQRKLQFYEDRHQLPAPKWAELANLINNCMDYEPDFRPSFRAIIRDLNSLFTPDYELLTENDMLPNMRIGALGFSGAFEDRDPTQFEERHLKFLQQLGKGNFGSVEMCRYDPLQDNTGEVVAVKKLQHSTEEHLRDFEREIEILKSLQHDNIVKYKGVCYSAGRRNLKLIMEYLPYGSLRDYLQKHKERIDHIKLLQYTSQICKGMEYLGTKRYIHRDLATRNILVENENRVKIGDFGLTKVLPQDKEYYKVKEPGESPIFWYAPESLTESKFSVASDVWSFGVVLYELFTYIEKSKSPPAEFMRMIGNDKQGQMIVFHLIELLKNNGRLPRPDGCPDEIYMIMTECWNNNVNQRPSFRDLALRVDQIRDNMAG
Procedure, shortened: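 GST-tagged recombinant JAK2 pre-incubated 1 h at ambient temperature with compound and GFP-STAT1 peptide in HEPES pH 7.5/MgCl2 buffer, then ATP added for a 1 h reaction with 1% DMSO. TR-FRET read after EDTA and Tb-anti-pSTAT1 (pTyr701) addition; IC50 from 4-parameter fit, converted to pKi by Cheng-Prusoff.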

[1] = test system: IL-2 stimulated pSTAT5 in Tall-1 T cells; assay: Cellular JAK3 potency assay: inhibition of IL-2 stimulated pSTAT5 in Tall-1 T cells; type: cell-based, human; conditions: for IC50: Homo sapiens, read-out: Tall-1 (pIC50) (converted); for Tall-1 (pIC50): IL-2 stimulated pSTAT5 in Tall-1 T cells
Procedure, shortened: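 Tall-1 human T cells (45,000/well) in phenol red-free DMEM with 10% FBS were preincubated with compound 1 h at 37 °C, then stimulated with IL-2 (final 300 ng/ml) for 30 min. Lysate pSTAT5 read by AlphaLisa; IC50 from inhibition curves, reported as pIC50 (mean±SD).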

JAK3 = biological target: T3, JAK3 (Homo sapiens, UniProt P52333); assay: Biochemical JAK3 kinase assay (LanthaScreen); design: GST; purchased Life Technologies; conditions: for Ki: read-out: JAK 3 (pKi) (converted)
T3 sequence (P52333 1-1124): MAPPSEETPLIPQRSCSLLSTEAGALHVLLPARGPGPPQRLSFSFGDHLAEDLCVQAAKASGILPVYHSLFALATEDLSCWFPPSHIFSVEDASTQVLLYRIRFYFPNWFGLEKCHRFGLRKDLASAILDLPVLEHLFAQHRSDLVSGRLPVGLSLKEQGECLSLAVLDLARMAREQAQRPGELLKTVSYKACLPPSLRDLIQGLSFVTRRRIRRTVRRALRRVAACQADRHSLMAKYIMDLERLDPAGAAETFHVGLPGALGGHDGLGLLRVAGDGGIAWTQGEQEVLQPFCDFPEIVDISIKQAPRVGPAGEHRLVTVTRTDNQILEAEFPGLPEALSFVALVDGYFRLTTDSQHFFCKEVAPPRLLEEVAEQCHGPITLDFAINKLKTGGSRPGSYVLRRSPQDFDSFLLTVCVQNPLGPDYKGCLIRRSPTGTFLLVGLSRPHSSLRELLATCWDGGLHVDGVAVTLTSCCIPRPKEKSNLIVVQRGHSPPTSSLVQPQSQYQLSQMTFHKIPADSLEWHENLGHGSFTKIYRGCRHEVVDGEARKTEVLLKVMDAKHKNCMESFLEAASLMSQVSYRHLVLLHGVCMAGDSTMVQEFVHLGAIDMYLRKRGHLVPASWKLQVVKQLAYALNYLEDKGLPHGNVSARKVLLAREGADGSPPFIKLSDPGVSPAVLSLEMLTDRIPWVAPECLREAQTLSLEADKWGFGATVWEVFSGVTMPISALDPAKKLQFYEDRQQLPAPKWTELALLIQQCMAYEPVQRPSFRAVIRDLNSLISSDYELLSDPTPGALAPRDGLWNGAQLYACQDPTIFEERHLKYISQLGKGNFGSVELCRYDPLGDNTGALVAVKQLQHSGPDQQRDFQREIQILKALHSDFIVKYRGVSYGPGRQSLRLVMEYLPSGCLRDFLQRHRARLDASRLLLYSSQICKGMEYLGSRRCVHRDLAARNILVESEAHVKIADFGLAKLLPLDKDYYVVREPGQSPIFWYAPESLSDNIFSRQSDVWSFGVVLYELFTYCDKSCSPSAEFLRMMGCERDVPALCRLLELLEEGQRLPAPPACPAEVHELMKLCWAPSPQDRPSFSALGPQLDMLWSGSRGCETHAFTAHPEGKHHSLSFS
Procedure, shortened: as §1

JAK1 = biological target: T4, JAK1 (Homo sapiens, UniProt P23458); assay: Biochemical JAK1 kinase assay (LanthaScreen); conditions: for Ki: read-out: JAK 1 (pKi) (converted)
T4 construct: GST; purchased Life Technologies
T4 sequence (P23458 whole entry): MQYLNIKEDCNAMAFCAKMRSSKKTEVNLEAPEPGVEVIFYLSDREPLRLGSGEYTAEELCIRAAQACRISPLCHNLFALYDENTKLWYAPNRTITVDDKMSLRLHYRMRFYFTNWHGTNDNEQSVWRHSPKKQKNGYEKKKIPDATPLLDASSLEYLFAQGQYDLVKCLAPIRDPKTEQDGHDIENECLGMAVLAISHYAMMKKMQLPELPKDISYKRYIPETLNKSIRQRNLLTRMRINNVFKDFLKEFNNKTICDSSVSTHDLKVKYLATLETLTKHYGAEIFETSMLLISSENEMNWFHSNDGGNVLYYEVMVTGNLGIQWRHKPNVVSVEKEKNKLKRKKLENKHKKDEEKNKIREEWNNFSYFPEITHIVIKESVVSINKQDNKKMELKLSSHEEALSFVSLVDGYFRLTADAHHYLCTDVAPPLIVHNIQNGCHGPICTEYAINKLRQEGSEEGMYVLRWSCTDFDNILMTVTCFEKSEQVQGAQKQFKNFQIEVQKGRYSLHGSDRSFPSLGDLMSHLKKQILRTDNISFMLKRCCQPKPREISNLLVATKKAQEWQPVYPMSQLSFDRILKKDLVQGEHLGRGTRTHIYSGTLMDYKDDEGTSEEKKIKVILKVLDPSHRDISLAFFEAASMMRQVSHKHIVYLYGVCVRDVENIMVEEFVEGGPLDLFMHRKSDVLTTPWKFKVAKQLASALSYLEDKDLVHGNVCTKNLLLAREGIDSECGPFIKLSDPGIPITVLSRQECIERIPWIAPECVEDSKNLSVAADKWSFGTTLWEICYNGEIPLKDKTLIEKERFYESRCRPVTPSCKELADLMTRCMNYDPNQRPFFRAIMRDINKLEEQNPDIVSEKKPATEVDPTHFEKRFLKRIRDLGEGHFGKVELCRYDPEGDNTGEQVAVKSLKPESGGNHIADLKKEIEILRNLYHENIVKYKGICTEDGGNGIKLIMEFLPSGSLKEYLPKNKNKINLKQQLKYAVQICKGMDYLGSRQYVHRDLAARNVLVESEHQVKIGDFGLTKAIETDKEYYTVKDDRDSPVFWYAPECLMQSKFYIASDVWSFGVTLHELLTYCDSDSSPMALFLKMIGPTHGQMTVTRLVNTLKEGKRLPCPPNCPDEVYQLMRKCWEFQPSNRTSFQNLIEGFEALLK
Procedure, shortened: as §1

[2] = TALL-1, IL-2 stimulated pSTAT5 in Tall-1 T cells
[3] = selectivity: difference of pKi JAK3 and pKi JAK1
[4] = TALL-1, IL-2 stimulated pSTAT5, Tall-1 T cells
[5] = selectivity JAK3 over JAK1, difference of pKi

T1 sequence (P29597 whole entry): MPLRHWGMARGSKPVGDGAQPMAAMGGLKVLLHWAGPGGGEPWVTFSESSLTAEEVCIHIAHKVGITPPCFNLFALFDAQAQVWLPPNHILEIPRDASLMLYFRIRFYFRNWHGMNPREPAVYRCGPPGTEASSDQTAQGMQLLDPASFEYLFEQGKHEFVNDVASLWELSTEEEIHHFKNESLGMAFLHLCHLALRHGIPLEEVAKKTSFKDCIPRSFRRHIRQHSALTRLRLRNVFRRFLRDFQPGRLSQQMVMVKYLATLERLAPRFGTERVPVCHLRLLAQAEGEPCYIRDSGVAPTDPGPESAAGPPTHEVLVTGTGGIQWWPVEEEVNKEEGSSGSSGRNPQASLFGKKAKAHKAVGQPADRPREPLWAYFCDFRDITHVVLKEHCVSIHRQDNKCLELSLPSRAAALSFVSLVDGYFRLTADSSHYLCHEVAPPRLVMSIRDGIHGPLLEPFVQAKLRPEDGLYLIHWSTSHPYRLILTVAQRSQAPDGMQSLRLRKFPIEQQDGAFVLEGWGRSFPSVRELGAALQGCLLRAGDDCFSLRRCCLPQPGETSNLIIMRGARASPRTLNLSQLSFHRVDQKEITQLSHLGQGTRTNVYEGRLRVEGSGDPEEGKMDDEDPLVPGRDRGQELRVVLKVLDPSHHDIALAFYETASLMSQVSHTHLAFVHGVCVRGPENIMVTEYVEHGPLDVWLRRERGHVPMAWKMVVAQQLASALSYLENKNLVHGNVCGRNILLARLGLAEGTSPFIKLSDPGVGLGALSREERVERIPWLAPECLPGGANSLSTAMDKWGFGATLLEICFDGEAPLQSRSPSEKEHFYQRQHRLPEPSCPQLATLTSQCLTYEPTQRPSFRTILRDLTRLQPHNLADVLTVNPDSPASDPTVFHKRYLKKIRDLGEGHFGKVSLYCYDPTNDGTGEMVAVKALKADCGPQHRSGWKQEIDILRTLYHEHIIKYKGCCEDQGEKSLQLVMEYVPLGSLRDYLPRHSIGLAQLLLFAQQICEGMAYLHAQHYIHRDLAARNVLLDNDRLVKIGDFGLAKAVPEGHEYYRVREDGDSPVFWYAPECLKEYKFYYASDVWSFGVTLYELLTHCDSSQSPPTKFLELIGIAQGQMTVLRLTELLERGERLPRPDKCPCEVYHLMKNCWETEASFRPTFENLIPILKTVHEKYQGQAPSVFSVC

SMILES | Ki (Tyk2) | Ki (JAK2) | IC50 [1, 2] | Ki (JAK3) | JAK3 (pKi)-JAK1 (pKi) (JAK3; [3]) | Ki (JAK1) | Tyk 2 (pKi) (Tyk2) | JAK 2 (pKi) (JAK2) | Tall-1 (pIC50) [1] | JAK 3 (pKi) (JAK3) | JAK 1 (pKi) (JAK1) | IC50 [1, 4] | JAK3 (pKi)-JAK1 (pKi) (JAK3; [5])
CN(C)C/C=C/C(=O)N1CC(F)(COc2cc(-c3ccc(O)c(F)c3)cc3[nH]ncc23)C1 [Compound 3-40] | > 100 nM | 10 to 100 nM | < 31.6 nM | < 0.1 nM | A (a value of 3 or above) | 0.1 to 1 nM | – | – | – | – | – | – | –
C=CC(=O)N1CC(F)(COc2cc(-c3ccc(O)c(F)c3)nc3[nH]ncc23)C1 [Compound 3-54] | – | – | – | – | A (a value of 3 or above) | – | E (a pKi value of 7 or below (Ki of 100 nM or above)) | E (a pKi value of 7 or below (Ki of 100 nM or above)) | A (a pIC50 value≥7.5 (IC50≤32 nM)) | B (a pKi value between 9 and 10 (Ki between 1 nM and 0.1 nM)) | E (a pKi value of 7 or below (Ki of 100 nM or above)) | – | –
C=CC(=O)N1CC[C@H](Oc2cc(-c3ccc(O)cc3)cc3[nH]ncc23)C[C@H]1C [Compound 12-32] | > 100 nM | 10 to 100 nM | – | < 0.1 nM | – | > 100 nM | – | – | – | – | – | < 31.6 nM | A (a value of 3 or above)
CN(C)C/C=C/C(=O)N1CC(F)(COc2cc(-c3ccc(O)cc3)nc3[nH]ncc23)C1 [Compound 3-89] | > 100 nM | > 100 nM | 31.6 to 200 nM | < 0.1 nM | A (a value of 3 or above) | > 100 nM | – | – | – | – | – | – | –
C=CC(=O)N1C[C@@H](C)O[C@@H](C(=O)Nc2cc(-c3ccc(O)cc3)cc3[nH]ncc23)C1 [Compound 12-61] | > 100 nM | > 100 nM | – | < 0.1 nM | – | > 100 nM | – | – | – | – | – | 31.6 to 200 nM | A (a value of 3 or above)
CN(C)C/C=C/C(=O)N1CC(F)(C2(Oc3cc(-c4ccc(O)cc4)cc4[nH]ncc34)CC2)C1 [Compound 12-36] | > 100 nM | > 100 nM | – | < 0.1 nM | – | 10 to 100 nM | – | – | – | – | – | < 31.6 nM | A (a value of 3 or above)
C=CC(=O)N1CC(C#N)(COc2nc(-c3ccc(O)c(F)c3)cc3[nH]ncc23)C1 [Compound 3-108] | – | – | – | – | A (a value of 3 or above) | – | E (a pKi value of 7 or below (Ki of 100 nM or above)) | D (a pKi value between 7 and 8 (Ki between 100 nM and 10 nM)) | A (a pIC50 value≥7.5 (IC50≤32 nM)) | A (a pKi value≥10 (Ki≤0.1 nM)) | E (a pKi value of 7 or below (Ki of 100 nM or above)) | – | –
C=CC(=O)N1CC(S(=O)(=O)c2cc(-c3ccc(O)cc3)cc3[nH]ncc23)C1 [Compound 12-50] | > 100 nM | > 100 nM | – | < 0.1 nM | – | > 100 nM | – | – | – | – | – | 31.6 to 200 nM | A (a value of 3 or above)
C=CC(=O)N1CC(C)(C(=O)Nc2cc(-c3ccc(O)cc3)cc3[nH]ncc23)C1 [Compound 12-68] | > 100 nM | > 100 nM | – | 0.1 to 1 nM | – | > 100 nM | – | – | – | – | – | 200 to 1000 nM | A (a value of 3 or above)
C=CC(=O)N1CC(C)(COc2cc(-c3ccc(O)cc3)cc3[nH]ncc23)C1 [Compound 3-8] | – | – | – | – | A (a value of 3 or above) | – | E (a pKi value of 7 or below (Ki of 100 nM or above)) | E (a pKi value of 7 or below (Ki of 100 nM or above)) | A (a pIC50 value≥7.5 (IC50≤32 nM)) | B (a pKi value between 9 and 10 (Ki between 1 nM and 0.1 nM)) | E (a pKi value of 7 or below (Ki of 100 nM or above)) | – | –
C=CC(=O)N1CC(CC)(COc2nc(-c3ccc(O)c(F)c3)nc3[nH]ncc23)C1 [Compound 3-67] | > 100 nM | > 100 nM | 31.6 to 200 nM | 0.1 to 1 nM | A (a value of 3 or above) | > 100 nM | – | – | – | – | – | – | –
C=CC(=O)N1CC[C@H](Oc2cc(-c3ccc(O)cc3)cc3[nH]nc(COC)c23)C1 [Compound 1-22] | > 100 nM | 10 to 100 nM | 31.6 to 200 nM | < 0.1 nM | A (a value of 3 or above) | > 100 nM | – | – | – | – | – | – | –
C=CC(=O)N1CC(C#N)(COc2nc(-c3ccc(O)c(Cl)c3)cc3[nH]ncc23)C1 [Compound 3-107] | – | – | – | – | A (a value of 3 or above) | – | E (a pKi value of 7 or below (Ki of 100 nM or above)) | E (a pKi value of 7 or below (Ki of 100 nM or above)) | A (a pIC50 value≥7.5 (IC50≤32 nM)) | A (a pKi value≥10 (Ki≤0.1 nM)) | E (a pKi value of 7 or below (Ki of 100 nM or above)) | – | –
COC1CN(C/C=C/C(=O)N2CC(COc3cc(-c4ccc(O)cc4)cc4[nH]ncc34)C2)C1 [Compound 3-132] | > 100 nM | > 100 nM | 200 to 1000 nM | 0.1 to 1 nM | A (a value of 3 or above) | > 100 nM | – | – | – | – | – | – | –
C=CC(=O)N1CC(C)(COc2nc(-c3ccc(O)c(Cl)c3)cc3[nH]ncc23)C1 [Compound 3-97] | – | – | – | – | B (a value of 2.3 to 3) | – | E (a pKi value of 7 or below (Ki of 100 nM or above)) | E (a pKi value of 7 or below (Ki of 100 nM or above)) | A (a pIC50 value≥7.5 (IC50≤32 nM)) | B (a pKi value between 9 and 10 (Ki between 1 nM and 0.1 nM)) | E (a pKi value of 7 or below (Ki of 100 nM or above)) | – | –
C=CC(=O)N1CCC(COc2cc(-c3ccc(O)cc3)cc3[nH]ncc23)CC1 [Compound 12-27] | > 100 nM | 10 to 100 nM | – | < 0.1 nM | – | > 100 nM | – | – | – | – | – | < 31.6 nM | A (a value of 3 or above)
